For test [1], the system named is peripheral NK cells. Kind of test: in vitro differentiation of peripheral NK cells into ielLC1-like cells, co-culture with epithelial feeder cells. Type of test: cell-based, human. The method, then: (A) Protocol for in vitro differentiation of peripheral NK cells into ielLC1-like cells. In brief, PCI13 cells were seeded into a culture plate, then peripheral NK cells were sorted and added to the culture (ratio 10NK:1PCI13) in the presence or not of IL15 (10 ng/mL). After 4 days of co-culture, NK cells were harvested for phenotypic and functional analysis. (B, LEFT) Dot plots show the expression of CD49a and CD103 on gated Lin^−CD45^+CD56^+ NK cells, after culture of NK with PCI13 and IL15 (10 ng/mL) or control conditions. […] (C-D) Functional response of in vitro differentiated ielLC1-like cells. […] (D) After in vitro differentiation, CD49a^− and CD49a^+ cells were sorted and mixed with PCI13 (10^6 NK cells:5.10^6 PCI13) and injected subcutaneously in the flank of NSG mice. Then, tumor volume was measured over time. […] (E) Sorted CD49a^+ and CD49a^− NK cells were assessed for expression of NR4A1, NR4A2, and NR4A3 by qRT-PCR.
In a summary of the protocol for in vitro differentiation of peripheral conventional NK cells into ielLC1-like cells: sorted, enriched, or expanded peripheral NK cells in the presence of IL15 are seeded into culture with cells such as HNSCC, which may be irradiated, or onto plate surfaces that mimic select attributes of these cells. After a suitable period of time for culture, e.g. about 4 days, the differentiated cells are harvested for analysis and effector functions.
• HNSCC cells were harvested from their culture, washed with PBS and counted. • HNSCC cells were then resuspended in media for co-culture, and seeded into plates as follows:
• NK were resuspended with media containing IL-15. • NK cells were added to the co-culture as follows:
• On day 2, half of the supernatant was replaced with fresh media containing IL-15 (20 ng/mL). Harvesting and use of ielLC1-Like Cells. • On day 4, ILC1-like cells were harvested. • Note: The harvested cells were ielLC1-like cells. HNSCC cells were killed during the culture. • ILC1-like cells were washed with PBS and counted. • ILC1-like cells were then used for phenotypic analysis and functional assays.

Test [2] relates to peripheral NK cells. The test can be described thus: in vivo differentiation of peripheral NK cells injected intra-tumor into PCI13 tumors. The settings on record: IL15 5 μg/mouse every 2 days, tumors harvested after 6 days. Also on record: species or system NSG mice. As to the method:
(A) Protocol used to evaluate the in vivo differentiation of peripheral NK cells into ILC1-like cells. In brief, 10^6 PCI13 were subcutaneously injected in the flank of NSG mice, after 10-15 days (when the tumor were palpable) peripheral NK cells were obtained from blood and were injected intra-tumor. Mice were treated or not with IL15 (5 μg/mouse) every 2 days. After 6 days, tumors were harvested and the phenotype and function of intra-tumoral NK cells were assessed. (B) According to the protocol described in (A), sorted Lin^−CD56^+ NK cells were intra-tumor injected. […] (C-D) According to the protocol described in (A), sorted Lin^−CD56^+CD94^+CD16^− Stage 4b NK cells were intra-tumor injected. (C, LEFT) Dot plots show the expression of CD49a and CD103 on NK cells obtained following intra-tumor injection of sorted stage 4b NK cells, in the presence or not of IL15 in vivo. […]
10^6 PCI13 tumor cells were subcutaneously injected in the flank of NSG mice, after 10-15 days (when the tumor were palpable) peripheral NK cells were obtained from blood and were injected intra-tumor. […] After 6 days, tumors were harvested and the phenotype and function of intra-tumoral NK cells were assessed.

The subject of a further test is NK cells. The test can be described thus: feeder cell-free culture of NK cells, differentiation into ielLC1-like cells. As to conditions: culture plates with or without E-Cadherin coating, NK cells with IL-15, no feeder cells. The format is cell-based, human. The source says:
FIG. 7: Co-culture of peripheral NK cells with IL-15 and TGFbeta enhances differentiation into ielLC1-like cells. (A) Using a co-culture system similar to FIG. 5A, NK cells were co-cultured with MDCK (top) or PCI-13 (bottom) in the presence of IL-15 and either the TGFbeta receptor 2 inhibitor ITD1 or the ALK receptor inhibitor SB-431542 or TGFb.
FIG. 11: Feeder cell-free culture of NK cells with extracellular matrix components can induce ielLC1-like cell differentiation. Culture plates with or without E-Cadherin coating was used to culture NK cells with IL-15.

Setting [3] is: NK cells with IL-15 and PCI-13 carcinoma cells.
Setting [4] is: NK cells co-cultured with MDCK or PCI-13 in the presence of IL-15.

In the case of `Cc1ccccc1N=Nc1ccc(NC(=O)c2ccnn2C)c(C)c1` [CH-223191], in the test on peripheral NK cells [1] (setting [3]), the ielLC1-like cell differentiation result is “profound reduction of ielLC1-like differentiation”.

Take `O=Cc1c2[nH]c3ccccc3c2cc2[nH]c3ccccc3c12` [FICZ]: the ielLC1-like cell differentiation result in the test on peripheral NK cells [1] (setting [3]) is “promoted the ielLC1-like differentiation”.

`CCOC(=O)C1=C(C)NC2=C(C(=O)CC(C)(C)C2)C1c1ccc(-c2ccccc2)cc1` (centres unmarked) [ITD1]: the ielLC1-like cell differentiation entry with peripheral NK cells [1] (setting [4]) is on record as “significant inhibition of ielLC1-like cell differentiation”.

For “IL-15: 14-15 kDa glycoprotein cytokine (BioLegend; Cat #570306)”, the “differentiation of peripheral NK into ielLC1-like cells (CD49a+, CD49a+CD103+)” value in the test with peripheral NK cells [1] (NK with PCI13 (ratio 10NK:1PCI13), IL15 10 ng/mL, 4 days) was “promotes differentiation of peripheral NK into ielLC1-like cells”. The “differentiation of peripheral NK into ielLC1-like cells in vivo” value in the test with peripheral NK cells [2] is recorded as “promotes differentiation of peripheral NK into ielLC1-like cells in vivo”.

Turning to `NC(=O)c1ccc(-c2nc(-c3ccc4c(c3)OCO4)c(-c3ccccn3)[nH]2)cc1` [SB-431542], the ielLC1-like cell differentiation entry with peripheral NK cells [1] (setting [4]) is “significant inhibition of ielLC1-like cell differentiation”.

As to TGFb, the ielLC1-like cell differentiation result in the test with peripheral NK cells [1] (setting [4]) is “stimulation of the ielLC1-like phenotype”.

B1: E-Cadherin: coating of culture plates, extracellular matrix component, used without feeder cells (protein, UniProt P12830 155-882, looked up)
Cadherin-1: DWVIPPISCPENEKGPFPKNLVQIKSNKDKEGKVFYSITGQGADTPPVGVFIIERETGWLKVTEPLDRERIATYTLFSHAVSSNGNAVEDPMEILITVTDQNDNKPEFTQEVFKGSVMEGALPGTSVMEVTATDADDDVNTYNAAIAYTILSQDPELPDKNMFTINRNTGVISVVTTGLDRESFPTYTLVVQAADLQGEGLSTTATAVITVTDTNDNPPIFNPTTYKGQVPENEANVVITTLKVTDADAPNTPAWEAVYTILNDDGGQFVVTTNPVNNDGILKTAKGLDFEAKQQYILHVAVTNVVPFEVSLTTSTATVTVDVLDVNEAPIFVPPEKRVEVSEDFGVGQEITSYTAQEPDTFMEQKITYRIWRDTANWLEINPDTGAISTRAELDREDFEHVKNSTYTALIIATDNGSPVATGTGTLLLILSDVNDNAPIPEPRTIFFCERNPKPQVINIIDADLPPNTSPFTAELTHGASANWTIQYNDPTQESIILKPKMALEVGDYKINLKLMDNQNKDQVTTLEVSVCDCEGAAGVCRKAQPVEAGLQIPAILGILGGILALLILILLLLLFLRRRAVVKEPLLPPEDDTRDNVYYYDEEGGGEEDQDFDLSQLHRGLDARPEVTRNDVAPTLMSVPRYLPRPANPDEIGNFIDENLKAADTDPTAPPYDSLLVFDYEGSGSEAASLSSLNSSESDKDQDYDYLNEWGNRFKKLADMYGGGEDD
For B1, the “formation of ielLC1-like cells” value with NK cells is recorded as “enhanced formation of the ielLC1-like cells”.

(Values after patent US20230226109A1, “METHOD FOR DIFFERENTIATING INNATE LYMPHOID CELLS FOR IMMUNOTHERAPY” (The Board of Trustees of the Leland Stanford Junior …, priority 2019, published 2023).)
